Reference: patent US20120108501A1, “Protease Inhibitors” (priority 2009, published 2012)

Experiment: Pharmacokinetics of released PEGylated protease inhibitor following P.O. administration of prodrugs in rats
Assay type: in vivo, male Sprague-Dawley rats
Set-up: AUCall Mean: concentration or dose not given beside the values; C24 Mean: unit not given here
Details: rats (n = 4-5); for C24 Mean: concentration at 24 hours
Experimental: Pharmacokinetic analysis of protease inhibitors described herein was conducted. To evaluate the pharmacokinetics of PEGylated protease inhibitor conjugates with releasable lipophilic attachments, test compounds were administered to male Sprague-Dawley rats.
At various times following test article administration, serial blood samples were collected from indwelling jugular vein catheters and transferred to micro-tubes containing 7.5 μL of 20% w/v K2EDTA as an anticoagulant. Following processing of the blood samples to plasma (10 minutes at 10000 rpm, Centrifuge Model: Kubota 3500), plasma concentrations of the test article or corresponding PEGylated molecule released from the test article was measured using LC-MS/MS methods. Pharmacokinetic parameters were estimated using noncompartmental methods.

[1] = mPEG6-atazanavir in plasma after PO administration of mPEG6-ATV or of the listed prodrug
[2] = mPEG5-atazanavir in plasma after PO administration of mPEG5-ATV or of the listed prodrug
[3] = mPEG3-atazanavir in plasma after PO administration of mPEG3-ATV or of the listed prodrug

Compound | AUCall Mean [1] [ng·h/mL] | Cmax Mean [1] [ng/mL] | MRT last Mean [1] [h] | Tmax Median [1] [h] | AUCall Mean [2] [ng·h/mL] | Cmax Mean [2] [ng/mL] | MRT last Mean [2] [h] | Tmax Median [2] [h] | further results
COCCOCCOCCOCCOCCOCCOC(=O)N[C@H](C(=O)N[C@@H](Cc1ccccc1)[C@H](CN(Cc1ccc(-c2ccccn2)cc1)NC(=O)[C@@H](NC(=O)OC)C(C)(C)C)OC(=O)CNC(=O)[C@@H](N)Cc1ccccc1)C(C)(C)C.Cl [Phe-Gly-mPEG6-ATV, Phe-Gly-mPEG6-Atazanavir Hydrochloride] | 217 | 8.86 | 26.1 | 24.0 |  |  |  |  | 
CCOC(CC)OC(CN(Cc1ccc(-c2ccccn2)cc1)NC(=O)C(NC(=O)OC)C(C)(C)C)C(Cc1ccccc1)NC(=O)C(NC(=O)OCCOCCOCCOCCOCCOCCOC)C(C)(C)C (mixture of isomers) [ATV-1-Ethoxy propoxy-mPEG6, atazanavir-1-ethoxypropoxy-mPEG6] | 185 | 83.0 | 5.16 | 0.750 |  |  |  |  | 
CCCCC(=O)OC(CN(Cc1ccc(-c2ccccn2)cc1)NC(=O)C(NC(=O)OC)C(C)(C)C)C(Cc1ccccc1)NC(=O)C(NC(=O)OCCOCCOCCOCCOCCOCCOC)C(C)(C)C (stereo not shown) [C4H9CO-mPEG6-ATV, C4H9CO-mPEG6-atazanavir] | 36.5 | 13.8 | 1.14 | 0.750 |  |  |  |  | 
COCCOCCOCCOCCOCCOC(=O)NC(C(=O)NC(Cc1ccccc1)C(CN(Cc1ccc(-c2ccccn2)cc1)NC(=O)C(NC(=O)OC)C(C)(C)C)OC(=O)CNC(=O)C(N)Cc1ccccc1)C(C)(C)C.Cl (stereo not drawn) [Phe-Gly-mPEG5-Atazanavir HCl, Phe-Gly-mPEG5-Atazanavir Hydrochloride] |  |  |  |  | 33.7 | 3.10 | 12.0 | 12.0 | C24 Mean [2]: 0.169
CCC(=O)OC(CN(Cc1ccc(-c2ccccn2)cc1)NC(=O)C(NC(=O)OC)C(C)(C)C)C(Cc1ccccc1)NC(=O)C(NC(=O)OCCOCCOCCOCCOCCOC)C(C)(C)C (stereo not shown) [C2H5CO-mPEG5-ATV, mPEG5-Atazanavir Propionate] |  |  |  |  | 39.1 | 6.90 | 4.04 | 0.750 | 
CCC(=O)OC(CN(Cc1ccc(-c2ccccn2)cc1)NC(=O)C(NC(=O)OC)C(C)(C)C)C(Cc1ccccc1)NC(=O)C(NC(=O)OCCOCCOCCOC)C(C)(C)C (stereo not shown) [C2H5CO-mPEG3-ATV, mPEG3-Atazanavir Propionate] |  |  |  |  |  |  |  |  | AUCall Mean [3]: 59.6 ng·h/mL; Cmax Mean [3]: 17.8 ng/mL; MRT last Mean [3]: 2.44 h; Tmax* Median [3]: 0.500 h
COCCOCCOCCOCCOCCOCCOC(=O)NC(C(=O)NC(Cc1ccccc1)C(CN(Cc1ccc(-c2ccccn2)cc1)NC(=O)C(NC(=O)OC)C(C)(C)C)OC(=O)C(CC(C)C)NC(=O)C(N)CC(C)C)C(C)(C)C.Cl (stereo not drawn) [Leu-Leu-mPEG6-ATV, Leu-Leu-mPEG6-Atazanavir Hydrochloride] | 152 | 14.2 | 13.1 | 1.50 |  |  |  |  | 
CCCCC(=O)OC(CN(Cc1ccc(-c2ccccn2)cc1)NC(=O)C(NC(=O)OC)C(C)(C)C)C(Cc1ccccc1)NC(=O)C(NC(=O)OCCOCCOCCOC)C(C)(C)C (stereo not shown) [C4H9CO-mPEG3-ATV, C4H9CO-mPEG3-atazanavir] |  |  |  |  |  |  |  |  | AUCall Mean [3]: 40.1 ng·h/mL; Cmax Mean [3]: 7.42 ng/mL; MRT last Mean [3]: 3.00 h; Tmax* Median [3]: 1.25 h
CCOC(CC)OC(CN(Cc1ccc(-c2ccccn2)cc1)NC(=O)C(NC(=O)OC)C(C)(C)C)C(Cc1ccccc1)NC(=O)C(NC(=O)OCCOCCOCCOCCOCCOC)C(C)(C)C (mixture of isomers) [ATV-1-Ethoxy propoxy-mPEG5, atazanavir-1-ethoxypropoxy-mPEG5] |  |  |  |  | 235 | 55.3 | 3.53 | 1.00 | 
COCCOCCOCCOCCOCCOCCOC(=O)NC(C(=O)NC(Cc1ccccc1)C(CN(Cc1ccc(-c2ccccn2)cc1)NC(=O)C(NC(=O)OC)C(C)(C)C)OC(=O)C(N)C(C)C)C(C)(C)C.Cl [mPEG6-ATV-L-valine, mPEG6-Atazanavir-L-Valine HCl] | 73.1 | 4.05 | 18.9 | 12.0 |  |  |  |  | 
COCCOCCOCCOCCOCCOCCOC(=O)N[C@H](C(=O)N[C@@H](Cc1ccccc1)[C@H](CN(Cc1ccc(-c2ccccn2)cc1)NC(=O)[C@@H](NC(=O)OC)C(C)(C)C)OC(=O)CNC(=O)[C@@H](N)CC(C)C)C(C)(C)C.Cl [Leu-Gly-mPEG6-ATV, Leu-Gly-mPEG6-Atazanavir Hydrochloride] | 294 | 13.7 | 27.2 | 30.0 |  |  |  |  | 
COCCOCCOCCOCCOCCOCCOC(=O)NC(C(=O)NC(Cc1ccccc1)C(CN(Cc1ccc(-c2ccccn2)cc1)NC(=O)C(NC(=O)OC)C(C)(C)C)OC(=O)C(CC(C)C)NC(=O)C(N)Cc1ccccc1)C(C)(C)C.Cl (stereo not drawn) [Phe-Leu-mPEG6-ATV, Phe-Leu-mPEG6-Atazanavir Hydrochloride] | 216 | 27.4 | 11.0 | 1.50 |  |  |  |  | 
CCOCO[C@@H](CN(Cc1ccc(-c2ccccn2)cc1)NC(=O)[C@@H](NC(=O)OC)C(C)(C)C)[C@H](Cc1ccccc1)NC(=O)[C@@H](NC(=O)OCCOCCOCCOCCOCCOC)C(C)(C)C [Methyl ethyl ether mPEG5-ATV, mPEG5-Atazanavir Methyl Ethyl Ether] |  |  |  |  | 489 | 95.1 | 6.19 | 1.00 | C24 Mean [2]: 2.7
CCCC(=O)OC(CN(Cc1ccc(-c2ccccn2)cc1)NC(=O)C(NC(=O)OC)C(C)(C)C)C(Cc1ccccc1)NC(=O)C(NC(=O)OCCOCCOCCOCCOCCOCCOC)C(C)(C)C (stereo not shown) [C3H7CO-mPEG6-ATV, mPEG6-Atazanavir Butyrate] | 6.16 | 2.22 | 1.36 | 2.00 |  |  |  |  | C24 Mean [1]: 0.00
COCCOCCOCCOCCOCCOCCOC(=O)N[C@H](C(=O)N[C@@H](Cc1ccccc1)[C@H](CN(Cc1ccc(-c2ccccn2)cc1)NC(=O)[C@@H](NC(=O)OC)C(C)(C)C)OC(=O)[C@H](Cc1ccccc1)NC(=O)[C@@H](N)CC(C)C)C(C)(C)C.Cl [Leu-Phe-mPEG6-ATV, Leu-Phe-mPEG6-Atazanavir Hydrochloride] | 418 | 37.2 | 13.8 | 1.50 |  |  |  |  | 
COCCOCCOCCOCCOCCOC(=O)NC(C(=O)NC(Cc1ccccc1)C(CN(Cc1ccc(-c2ccccn2)cc1)NC(=O)C(NC(=O)OC)C(C)(C)C)OCOCCOC)C(C)(C)C (stereo not shown) [mPEG5-ATV-Methyl ethyl methyl ether, mPEG5-Atazanavir Methyl Ethyl Methyl Ether] |  |  |  |  | 32.7 | 3.74 | 4.92 | 2.00 | 
mPEG5-atazanavir-ethoxy-CME-Leu-Leu [mPEG5ATV-Ethoxy-CM-Leu-Leu] |  |  |  |  | 50.3 | 1.86 | 26.7 | 24.0 | 
CCCCCCCC(=O)OC(CN(Cc1ccc(-c2ccccn2)cc1)NC(=O)C(NC(=O)OC)C(C)(C)C)C(Cc1ccccc1)NC(=O)C(NC(=O)OCCOCCOCCOCCOCCOCCOC)C(C)(C)C (stereo not shown) [C7H15CO-mPEG6-ATV, O-Octanoyl-mPEG6-Atazanavir] | 66.0 | 11.1 | 4.47 | 2.00 |  |  |  |  | 
COCCOCCOCCOCCOCCOCCOC(=O)NC(C(=O)NC(Cc1ccccc1)C(CN(Cc1ccc(-c2ccccn2)cc1)NC(=O)C(NC(=O)OC)C(C)(C)C)OC(C)=O)C(C)(C)C (stereo not shown) [Acetyl-mPEG6-Atazanavir, O-Acetyl-mPEG6-Atazanavir] | 150 | 10.3 | 13.8 | 6.00 |  |  |  |  | 
